How the values were obtained:
[1] = test system: HO-1; experiment: HO-1 mRNA expression by quantitative real-time PCR in cultured human fibroblasts; assay type: cell-based; conditions: human immortalized ATCC fibroblasts, peak at 15 µM
Description: The human immortalized ATCC fibroblasts were exposed for 6 hrs to different concentrations of CAP, ASX, or of a combination of the two compounds (5, 10, 15, and 30 µM). […] ASX causes a dose-dependent increase in HO-1 mRNA, measured relative to the non-inducible HO-2 paralog gene, which peaks (approximately 6-fold) at 15 µM) and subsequently decreases to 30 µM. […] To confirm that the HO-1 gene expression measured at the mRNA level corresponded to an equivalent increase in the heme oxygenase activity, this activity was measured at the same doses of CAP and ASX 6 and 24 hours after administration. […] The results highlight the synergistic activity of CAP and ASX in the ability to activate HO-1 gene expression. In order to determine the best ratio between the two compounds we evaluated using the same experimental model, different proportion of the two compounds at the final concentration of 15 µM (CAP/ASX 1:2, 1:1, 2:1).

[2] = test system: Nrf2; experiment: Nrf2 protein expression in nuclear extracts by Western blot; assay type: cell-based; conditions: cultured human fibroblasts, final concentration 15 µM, 1 hr up to 12 hrs, Figure 3
Description: The cultured human fibroblasts were exposed to CAP, ASX or to a combination of the two compounds at the final concentration of 15 µM to evaluate the Nrf2 protein expression over time. […] The […] were washed twice with PBS 1X. The cells were then harvested in 1 ml of 1X PBS and centrifuged at 3000 rpm for 3 min at 4 °C. The cell pellet was carefully resuspended in […] of cold buffer containing 10 mM of HEPES (pH 7.9), 10 mM of KCl, 0.1 mM of EDTA, 0.1 mM of EGTA, 1 µM of DTT, and cocktail complete with protease inhibitors (Roche, Mannheim, Germany). The pellet was then incubated on ice for 15 min to allow the cells to swell. After this time, 15 µl of 10% NP-40 were added and the tube was mixed with vortex for 10 s. The homogenate was then centrifuged at 3000 rpm for 3 min at 4 °C and the nuclear pellet was resuspended in 30 µl of cold buffer consisting of 20 mM of HEPES (pH 7.9), 0.4 M of NaCl, 1 mM of EDTA, 1 mM of EGTA, 1 µM of DTT and protease inhibitors. The pellet was then incubated on ice for 15 min and vortexed for 10 - 15 s every 2 min. The nuclear extract was finally centrifuged at 13,000 rpm for 5 min at 4 °C. The supernatant containing the nuclear proteins was broken down by SDS-polyacrylamide gel and subjected to immunoblot analysis using anti-Nrf2 (1:500 dilution) and anti-Sp1 (1:500 dilution) antibodies.

[3] = test system: NF-kβ p65; experiment: NF-kβ p65 DNA-binding activity, TransAM p65 ELISA kit, in LPS-stimulated macrophages; assay type: cell-based, rats; conditions: 500 ng/ml LPS, 15 µm, 12 hours, Fig. 4
Description: (§1) To evaluate the ability of the synergistic composition of the invention to inhibit the NF-kβ activity in macrophages of rats, we used the DNA-binding activity assay of NF-kβ p65 by ELISA kit for TransAM p65 transcription factor (Active Motif, Carlsbad, CA). The cells were stimulated with 500 ng/ml of LPS in the presence and absence of 15 µm of CAP, 15 µm of ASX or a 15 µm combination of CAP + ASX, for 12 hours, according to the invention. Then, the DNA-binding activity of NF-kβ p65 was determined. 12 hours thereafter LPS stimulation markedly promoted the DNA-binding activity of NF-kβ p65 and the expression of proinflammatory cytokines IL-1β, IL-6, and TNF-α. […] Consistently, similar effects were shown in terms of cytokine expression (Figure 5). An immortalized macrophage cell line was used. The cells were pretreated or not for 1 hr with 15 µm of CAP, 15 µm of ASX or 15 µm of CAP+ASX, and then exposed to 500 ng/ml of LPS for another 24 hrs. IL-1b, IL-6 and TNF-a were detected by ELISA kit purchased from Abcam, Cambridge, (MA) USA. The data are expressed as mean ±SEM, n = 4; *p < 0.001 vs. LPS, **p < 0.001 vs. CAP or ASX alone.

[4] = test system: IL-1β, IL-6 and TNF-α; experiment: Inflammatory cytokine secretion by ELISA in LPS-stimulated macrophages; assay type: cell-based; conditions: macrophages pretreated 1 hr with 15 µm, then 500 ng/ml LPS for 24 hrs, Figure 5
Description: as §1

| DNA-binding activity of NF-kβ p65 [3] | SMILES | increase in HO-1 mRNA, measured relative to the non-inducible HO-2 paralog gene ([1]; 6 hrs exposure) | Nrf2 protein expression in the nuclear extracts [2] | LPS-stimulated cytokine secretion (IL-1β, IL-6 and TNF-α) [4] | HO-1 gene expression (HO-1 mRNA), result in words ([1]; 6 hrs, 5, 10, 15 and 30 µM) |
| --- | --- | --- | --- | --- | --- |
| lower DNA-binding activity | CC1=C(/C=C/C(C)=C/C=C/C(C)=C/C=C/C=C(C)/C=C/C=C(C)/C=C/C2=C(C)C(=O)C(O)CC2(C)C)C(C)(C)CC(O)C1=O (stereo not drawn) [ASX, 3,3'-dihydroxy-β-carotene-4,4'-dion] | approximately 6 fold | significantly increased | significantly reduced | – |
| lower DNA-binding activity | COc1cc(CNC(=O)CCCC/C=C/C(C)C)ccc1O [CAP, (E)-N-(4-hydroxy-3-methoxybenzyl) -8-methylnon-6-enamide] | – | lower increase | significantly reduced | slightly less active |

— patent EP4279068A1, “COMPOSITION COMPRISING A COMBINATION OF CAPSAICIN AND/OR PHENYLCAPSAICIN AND ASTAXANTHIN FOR THE PREVENTION AND TREATMENT OF INFLAMMATORY-BASED SKIN DISEASES, IN PARTICULAR ASSOCIATED WITH SKIN AGING” (Safi Medical Care s.r.l., priority 2022, dated 2023)
